Data from patent publication US20200095241A1, “SUBSTITUTED 1,2,4-THIADIAZOLYLPYRROLONES AND 1,2,4-THIADIAZOLYLHYDANTOINS AND SALTS THEREOF AND USE THEREOF AS HERBICIDES” (Bayer CropScience Aktiengesellschaft, priority 2016, published 2020).
Each block holds one molecule with its values, some of them ahead of it.

Tests used:
[1] = tested on: Setaria viridis; assay: Post-emergence herbicidal action; assay type: in vivo; conditions: Setaria viridis, 504 h, 320 g/ha, about 3 weeks after treatment, read-out: Setaria viridis, herbicidal activity rated visually
Procedure: (§1) Seeds of monocotyledonous and dicotyledonous weeds and crop plants were placed in sandy loam in plastic or wood-fiber pots, covered with soil and cultivated in a greenhouse under controlled growth conditions. 2 to 3 weeks after sowing, the test plants were treated at the one-leaf stage. The compounds of the invention, formulated in the form of wettable powders (WP) or as emulsion concentrates (EC), were then sprayed onto the green parts of the plants as aqueous suspension or emulsion with addition of 0.5% additive at a water application rate of 600 l/ha (converted). After the test plants had been kept in the greenhouse under optimum growth conditions for about 3 weeks, the activity of the preparations was rated visually in comparison to untreated controls. For example, 100% activity=the plants have died, 0% activity=like control plants. Tables A1 to A12 below show the effects of selected compounds of the general formula (I) according to Tables I.1 to I.44 on various harmful plants and an application rate corresponding to 1280 g/ha or 320 g/ha, which were obtained by the experimental procedure mentioned above.

[2] = tested on: Stellaria media; assay: Post-emergence herbicidal action; assay type: in vivo; conditions: about 3 weeks after treatment
Procedure: as §1

[3] = tested on: Viola tricolor; assay: Post-emergence herbicidal action; assay type: in vivo; conditions: 504 h, 320 g/ha, about 3 weeks after treatment, read-out: Viola tricolor, herbicidal activity rated visually
Procedure: as §1

[4] = tested on: Matricaria inodora; assay: Pre-emergence herbicidal action; assay type: in vivo; conditions: 1280 g/ha, after about 3 weeks
Excerpt: (§2) Seeds of monocotyledonous and dicotyledonous weed plants and crop plants were placed in plastic or organic planting pots and covered with soil. The compounds of the invention, formulated in the form of wettable powders (WP) or as emulsion concentrates (EC), were then applied onto the surface of the covering soil as aqueous suspension or emulsion with addition of 0.5% additive at a water application rate of 600 l/ha (converted). After the treatment, the pots were placed in a greenhouse and kept under good growth conditions for the test plants. After about 3 weeks, the effect of the preparations was scored visually in comparison with untreated controls as percentages. For example, 100% activity=the plants have died, 0% activity=like control plants. Tables B1 to B15 below show the effects of selected compounds of the general formula (I) according to Tables I.1 to I.44 on various harmful plants and an application rate corresponding to 1280 g/ha or 320 g/ha, which were obtained by the experimental procedure mentioned above.

[5] = tested on: Stellaria media; assay: Pre-emergence herbicidal action; assay type: in vivo; conditions: after about 3 weeks; for Stellaria media, herbicidal effect scored visually: 1280 g/ha
Excerpt: as §2

[6] = tested on: Viola tricolor; assay: Pre-emergence herbicidal action; assay type: in vivo; conditions: Viola tricolor, 504 h, 320 g/ha, after about 3 weeks, read-out: Viola tricolor, herbicidal effect scored visually
Excerpt: as §2

[7] = target: T1, photosystem II (PS II) (Spinacia oleracea, UniProt P69560); assay: Measurement of the PS II activity in thylakoid membranes (DCPIP reduction); assay type: biochemical; conditions: 100 μM test compound, spinach thylakoid membranes, DCPIP 120 μM, 10 min at 22° C. with exposure to light; for inhibition at 100 µM (stock): read-out: Effect (inhibition of PS II activity)
T1 construct: the chloroplasts were osmotically ruptured and the thylakoid membranes were then obtained by centrifugation; from tissue; host or cells: fresh spinach leaves; thylakoid membranes isolated from chloroplasts
Procedure: Cooled fresh spinach leaves were comminuted and homogenized in 50 mM phosphate buffer, pH 6.8. 10 mM KCl, 0.34 M sucrose (sucrose buffer) (blender, 1 g of plant material/ml). The homogenate was subsequently filtered through 4 layers of Miracloth and the chloroplasts were isolated by centrifugation, i.e. 10 min of centrifugation at 4400×g (4° C.). The sediment was suspended in 25 ml of sucrose buffer and re-centrifuged for 10 min at 4400×g (4° C.). The sediment was then suspended in 40 ml of 50 mM phosphate buffer, pH 6.8, 10 mM KCl, without sucrose. In this step, the chloroplasts were osmotically ruptured and the thylakoid membranes were then obtained by centrifugation (10 min, 4400×g, 4° C.). The membrane sediment was finally suspended in 20 ml of 50 mM phosphate buffer, pH 6.8, 10 mM KCl. Following protein determination and activity determination, the membrane suspension was divided into aliquots and frozen in liquid nitrogen. The aliquots were stored at −80° C. Under these conditions, the photosystem II preparation was storage stable for at least three months. The activity determination of photosystem II (PS II) was then carried out using the following test principle:
The electron transfer from PS II to an artificial electron acceptor, 2,6-dichlorophenolindophenol (DCPIP), was measured with exposure to light. The concentration of the blue oxidized form of DCPIP was determined spectrophotometrically at wavelength λ=595 nm. […] The activity determination was carried out in microtiter plates (96 cavities) in a reaction volume of 200 μl. Here, 155 μl of dilute membrane suspension were initially charged in 50 mM of phosphate buffer, pH 6.8, 10 mM KCl. Depending on the activity of the PS II preparation, the dilution was adjusted such that the measurement of the decrease in absorption (λ=595 nm) was linear for at least 10 min. In each case 5 μl solution of the test compounds of a concentration of 100 μM in DMSO were added to the enzyme suspension; controls contained 5 μl DMSO; the final concentration of DMSO in the reaction batch was thus 2.5% (v/v); this concentration had no adverse effect on the enzymatic activity. On each microtiter plate, a known PS II inhibitor, for example metribuzin, was used as standard, which allowed the quality of the PS II test to be assessed. The reaction was started by addition of 40 μl DCPIP solution (600 μM in distilled water); the final concentration of DCPIP was 120 μM. Measurement of absorption was carried out over a period of 10 min at 22° C. and with exposure to light. Using metribuzin as comparative substance, the results for the efficacy of the compounds of the general formula (I) at 100 μM are stated in the table below using the following classification: ++++ (inhibition≥90%), +++ ([…]≥70%), ++ (70%>inhibition≥50%), + (50%>inhibition≥30%).

[8] = tested on: Abutilon theophrasti; assay: Post-emergence herbicidal action; assay type: in vivo; conditions: 320 g/ha, about 3 weeks after treatment
Procedure: as §1

[9] = tested on: Poa annua; assay: Pre-emergence herbicidal action; assay type: in vivo; conditions: 1280 g/ha, after about 3 weeks
Excerpt: as §2

[10] = tested on: Setaria viridis; assay: Pre-emergence herbicidal action; assay type: in vivo; conditions: 1280 g/ha, after about 3 weeks
Excerpt: as §2

[11] = tested on: Amaranthus retroflexus; assay: Post-emergence herbicidal action; assay type: in vivo; conditions: 320 g/ha, about 3 weeks after treatment
Procedure: as §1

inhibition at 100 µM (stock) [7]: > 90%
SMILES: CCc1nsc(N2C(=O)C(C)=C(C)C2O)n1 (stereo not drawn) [I.2-3, 3,4-Dimethyl-5-hydroxy-1-(3-ethyl-1,2,4-thiadiazol-5-yl)-1,5-dihydro-2H-pyrrol-2-one]
pest or weed control at 320 g/ha [1]: 80%
pest or weed control at 320 g/ha ([2]; Stellaria media, 504 h, 320 g/ha, read-out: Stellaria media, herbicidal activity rated visually): 80%
pest or weed control at 320 g/ha [3]: 100%
pest or weed control at 1280 g/ha ([4]; Tripleurospermum inodorum, 504 h, read-out: Matricaria inodora, herbicidal effect scored visually): 100%
pest or weed control at 320 g/ha ([5]; Stellaria media, 504 h, 320 g/ha, read-out: Stellaria media, herbicidal effect scored visually): 90%
pest or weed control at 320 g/ha [6]: 100%

Effect (inhibition of PS II activity) [7]: +++ (90%≥inhibition≥70%)
SMILES: CC1=C(C)C(O)N(c2nc(-c3ccccc3)ns2)C1=O (stereo not drawn) [I.2-21]
Abutilon theophrasti, herbicidal activity rated visually [8]: 100%
Matricaria inodora, herbicidal effect scored visually [4]: 90%
Poa annua, herbicidal effect scored visually [9]: 90%
Stellaria media, herbicidal effect scored visually [5]: 100%

Effect (inhibition of PS II activity) [7]: ++++ (inhibition≥90%)
SMILES: COc1ccc(-c2nsc(N3C(=O)C(C)=C(C)C3O)n2)cc1 (stereo not drawn) [I.2-83]

inhibition at 100 µM (stock) [7]: 50 to 70%
SMILES: COCc1nsc(N2C(=O)C(C)=C(C)C2O)n1 (stereo not drawn) [I.2-122, 3,4-Dimethyl-5-hydroxy-1-(3-methoxymethyl-1,2,4-thiadiazol-5-yl)-1,5-dihydro-2H-pyrrol-2-one]

Effect (inhibition of PS II activity) [7]: +++ (90%≥inhibition≥70%)
SMILES: CSc1nsc(N2C(=O)C(C)=C(C)C2O)n1 (stereo not drawn) [I.2-303]
Abutilon theophrasti, herbicidal activity rated visually [8]: 100%
Amaranthus retroflexus, herbicidal activity rated visually [11]: 100%
Stellaria media, herbicidal activity rated visually ([2]; 1280 g/ha): 100%
Matricaria inodora, herbicidal effect scored visually [4]: 100%
Poa annua, herbicidal effect scored visually [9]: 90%
Stellaria media, herbicidal effect scored visually [5]: 100%

Continued, molecule first:

SMILES: CC1=C(C)C(O)N(c2nc(C(C)(C)C)ns2)C1=O (stereo not drawn) [I.2-288]
Matricaria inodora, herbicidal effect scored visually [4]: 90%
Poa annua, herbicidal effect scored visually [9]: 90%
Setaria viridis, herbicidal effect scored visually [10]: 100%
Stellaria media, herbicidal effect scored visually [5]: 100%
Effect (inhibition of PS II activity) [7]: +++ (90%≥inhibition≥70%)

SMILES: CC1=C(C)C(O)N(c2nc(C3(C)CC3)ns2)C1=O (stereo not drawn) [I.2-335]
Effect (inhibition of PS II activity) [7]: ++++ (inhibition≥90%)

SMILES: CC1=C(C)C(O)N(c2nc(SCCOC(F)(F)C(F)(F)F)ns2)C1=O (stereo not drawn) [I.2-339]
Effect (inhibition of PS II activity) [7]: ++++ (inhibition≥90%)

SMILES: CCCc1nsc(N2C(=O)C(Cl)=C(C)C2O)n1 (stereo not drawn) [I.3-4]
Effect (inhibition of PS II activity) [7]: ++++ (inhibition≥90%)

SMILES: COCc1nsc(N2C(=O)C(Cl)=C(C)C2O)n1 (stereo not drawn) [I.3-122]
Effect (inhibition of PS II activity) [7]: +++ (90%≥inhibition≥70%)

SMILES: CC1=C(Cl)C(=O)N(c2nc(C3(C)CC3)ns2)C1O (stereo not drawn) [I.3-335, 3-Chloro-4-methyl-5-hydroxy-1-[3-(1-methylcycloprop-1-yl)-1,2,4-thiadiazol-5-yl]-1,5-dihydro-2H-pyrrol-2-one]
inhibition at 100 µM (stock) [7]: > 90%

SMILES: CC1=C(Cl)C(O)N(c2nc(C)ns2)C1=O (stereo not drawn) [I.4-2]
Effect (inhibition of PS II activity) [7]: +++ (90%≥inhibition≥70%)

SMILES: CCc1nsc(N2C(=O)C(C)=C(Cl)C2O)n1 (stereo not drawn) [I.4-3]
Effect (inhibition of PS II activity) [7]: ++++ (inhibition≥90%)
